Results on five compounds are retold here after patent publication US6359001B1, “Use of α-methyl-p-tyrosine to inhibit melanin production in iris melanocytes” (Pharmacia AB, priority 1997, dated 2002).

Like-named read-outs stand apart in the source and are kept apart here. Marks after values point to notes of the source that are not given here.

The target in data set [1] is T1, tyrosinase (Homo sapiens, UniProt P14679).
T1 construct: endogenous in cells; host or cells: primary uveal (iris) melanocyte cell strains from donor eyes (brown and brown-blue irises)
T1 sequence (P14679 19-529): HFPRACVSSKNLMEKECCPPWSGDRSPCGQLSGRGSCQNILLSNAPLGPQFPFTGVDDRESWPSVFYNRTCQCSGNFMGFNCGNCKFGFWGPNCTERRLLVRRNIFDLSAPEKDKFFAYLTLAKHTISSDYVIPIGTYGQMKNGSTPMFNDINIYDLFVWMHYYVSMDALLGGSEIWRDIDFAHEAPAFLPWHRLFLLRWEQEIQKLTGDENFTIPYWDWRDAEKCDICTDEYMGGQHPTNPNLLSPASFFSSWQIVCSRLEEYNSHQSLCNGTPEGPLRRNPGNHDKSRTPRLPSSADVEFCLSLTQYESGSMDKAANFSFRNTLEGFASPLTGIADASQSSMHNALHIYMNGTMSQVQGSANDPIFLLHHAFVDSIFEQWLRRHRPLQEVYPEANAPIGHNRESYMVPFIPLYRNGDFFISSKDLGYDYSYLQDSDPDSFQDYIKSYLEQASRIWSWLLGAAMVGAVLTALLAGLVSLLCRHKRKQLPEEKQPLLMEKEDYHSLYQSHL
The data set is described as follows: Tyrosinase activity in uveal melanocyte cell strains (adapted Pomerantz method, 3H2O release). The format is cell-based. As to conditions: for Tyrosinase activity: growth stage. The procedure: (§1) Uveal melanocytes were isolated and cultured from adult donor eyes. The iris was excised and placed in a dish with the posterior surface upward. The iris pigment epithelium was separated from the stroma after immersion in 0.25% trypsin solution (Gibco, USA) at 37° C. for 2 hour. The remaining iris stroma was placed in a 0.25% trypsin solution at 4° C. for 18 hours, followed by incubation at 37° C. for 1 hour. The isolated cells were collected. The trypsin solution was replaced by collagenase solution (400 U/ml, in F-12 medium, Sigma, USA) and incubated at 37° C. The collagenase solution was replaced, and the cells were collected, centrifuged, resuspended, and plated each hour for 3 hours.
(§2) The isolated uveal melanocytes were cultured in Falcon culture dishes (Becton Dickinson, USA) with FIC medium, which consisted of F-12 medium supplemented with 10% fetal bovine serum, 2 mM glutamine (all from Gibco), 10 ng/ml cholera toxin, 0.1 mM isobutylmethylxanthine, 50 μg/ml gentamicin (all from Sigma), and 20 ng/ml basic fibroblast growth factor (Promega, USA). The culture dishes were incubated in a humidified 5% CO2 atmosphere. The medium was changed three times a week. Geneticin (Sigma, USA); a cytotoxic agent, was added (100 μg/ml) for 3 to 7 days when necessary.
(§3) The 8 cell strains of uveal melanocytes used in the present study were isolated from donors with different iris color (brown and brown-blue).
Tyrosinase activity was evaluated in nine cell strains using an adaptation of the Pomerantz method, which is based on the measurement of ^3H2O released by the enzymatic hydroxylation of tyrosine.

The test system of data set [2] is uveal melanocytes. The data set is described as follows: Melanin content of cultured uveal (iris) melanocytes. The class given is cell-based. The note with it: for Melanin content: growth stage. The protocol:
as §1, §2, §3
(§4) Cultured uveal melanocytes were detached by trypsin-EDTA solution and counted in a hemocytometer, the cell suspensions were centrifuged, and the pellet was dissolved in 1 N NaOH. Melanin concentration was determined by measurement of optical density at 475 nm and compared with a standard curve obtained using synthetic melanin (Sigma). Melanin content was expressed as ng/cell.

For data set [3], the system named is monkey iris. The note with it: cited from earlier work.
The subject of data set [4] is uveal melanocytes. The data set is described as follows: Melanin production of cultured uveal (iris) melanocytes. The class given is cell-based. The note with it: for Melanin production: growth stage; for Melanin production by iris melanocytes (summary in words): in vitro experiments. The procedure:
as §1, §2, §3, §4
Melanin production was calculated by determining the melanin content and the cell counts at the beginning and the end of each generation by the following formula: […]
where C0 and Ct represent the melanin content per cell at times 0 and time t, respectively; P is the population increase during time t, D is the doubling time of the uveal melanocytes; and Cp is melanin production per cell per day during time t.

In data set [5] the test system is iris. The note with it: cited from earlier work.
The conditions of data set [6]: clinical concentrations for the treatment of pheocromocytoma; cited from earlier work.
Setting [7] is: 3 cell strains (brown-blue), latanoprost 10^−5 M, no α-methyl-p-tyrosine.
Where [8] appears, read: 3 cell strains (brown-blue), latanoprost 10^−6 M, no α-methyl-p-tyrosine.
Where [9] appears, read: 3 cell strains (brown-blue), latanoprost 10^−7 M, no α-methyl-p-tyrosine.
Where [10] appears, read: 3 cell strains (brown-blue), latanoprost 10^−8 M, no α-methyl-p-tyrosine.
Setting [11] is: 5 cell strains (brown), latanoprost 10^−5 M, no α-methyl-p-tyrosine.
Where [12] appears, read: 5 cell strains (brown), latanoprost 10^−6 M, no α-methyl-p-tyrosine.
The mark [13] stands for this setting: 5 cell strains (brown), latanoprost 10^−7 M, no α-methyl-p-tyrosine.
Where [14] appears, read: 5 cell strains (brown), latanoprost 10^−8 M, no α-methyl-p-tyrosine.
Setting [15] is: brown and brown-blue iris strains, latanoprost at the highest molar concentrations.
Where [16] appears, read: 3 cell strains (brown-blue), α-methyl-p-tyrosine 10^−5, no latanoprost.
Where [17] appears, read: 3 cell strains (brown-blue), α-methyl-p-tyrosine 10^−5 with latanoprost 10^−5 M.
The mark [18] stands for this setting: 3 cell strains (brown-blue), α-methyl-p-tyrosine 10^−5 with latanoprost 10^−6 M.
Where [19] appears, read: 3 cell strains (brown-blue), α-methyl-p-tyrosine 10^−5 with latanoprost 10^−7 M.
Where [20] appears, read: 3 cell strains (brown-blue), α-methyl-p-tyrosine 10^−5 with latanoprost 10^−8 M.
Where [21] appears, read: 5 cell strains (brown), α-methyl-p-tyrosine 10^−5, no latanoprost.
Setting [22] is: 5 cell strains (brown), α-methyl-p-tyrosine 10^−5 with latanoprost 10^−5 M.
Setting [23] is: 5 cell strains (brown), α-methyl-p-tyrosine 10^−5 with latanoprost 10^−6 M.
Where [24] appears, read: 5 cell strains (brown), α-methyl-p-tyrosine 10^−5 with latanoprost 10^−7 M.
The mark [25] stands for this setting: 5 cell strains (brown), α-methyl-p-tyrosine 10^−5 with latanoprost 10^−8 M.
[26] abbreviates: α-methyl-p-tyrosine 10^−5 M added with latanoprost 10^−7 to 10^−5 M, brown and brown-blue irises.

Turning to `CC(C)OC(=O)CCC/C=C\C[C@@H]1[C@@H](CC[C@@H](O)CCc2ccccc2)[C@H](O)C[C@@H]1O` [latanoprost, 13,14-dihydro-17-phenyl-18,19,20-tri-nor-PGF2αisopropyl ester], the Tyrosinase activity in data set [1] (setting [7]) is on record as 62.7* units; in data set [1] (setting [8]), 52.5* units; in data set [1] (setting [9]), 48.1* units; in data set [1] (setting [10]), 33.7 units; in data set [1] (setting [11]), 63.1* units; in data set [1] (setting [12]), 42.5 units. Besides, the Tyrosinase activity in data set [1] (setting [13]) was 38.3 units; in data set [1] (setting [14]) it was 36.7 units. In data set [1] (setting [15]), the “Tyrosinase activity (in words)” value is “increased”. In addition, the Melanin content is 0.0151* ng/cell in data set [2] (setting [7]); 0.0149* ng/cell in data set [2] (setting [8]); 0.0142* ng/cell in data set [2] (setting [9]); 0.0127 ng/cell in data set [2] (setting [10]); 0.0149* ng/cell in data set [2] (setting [11]); 0.0161* ng/cell in data set [2] (setting [12]). Moreover, the Melanin content in data set [2] (setting [13]) was determined as 0.0151 ng/cell; in data set [2] (setting [14]), 0.0141 ng/cell. In addition, the “Melanin content (in words)” value in data set [2] (setting [15]) was “increased”. Moreover, the “Pigmentation of the monkey iris” value in data set [3] (chronic treatment) was “increased pigmentation”. The Melanin production was 0.0067* ng/cell/day in data set [4] (setting [7]); 0.0056* ng/cell/day in data set [4] (setting [8]); 0.0046* ng/cell/day in data set [4] (setting [9]); 0.0038 ng/cell/day in data set [4] (setting [10]); 0.0047* ng/cell/day in data set [4] (setting [11]); 0.0036 ng/cell/day in data set [4] (setting [12]). In addition, the Melanin production in data set [4] (setting [13]) is reported as 0.0046* ng/cell/day; in data set [4] (setting [14]) it was 0.0038 ng/cell/day. Besides, the “Melanin production (in words)” value in data set [4] (setting [15]) is recorded as “increased”. The “Iris colour change in patients” value in data set [5] (chronic therapy, sometimes noted) is recorded as “darkening of the iris”.
For `CCCCC[C@H](O)/C=C/[C@@H]1[C@@H](C/C=C\CCCC(=O)O)[C@@H](O)C[C@H]1O` [PGF2α], in data set [3] (monkey, in vivo), the “Pigmentation of the monkey iris” value is “increased pigmentation”.
On to `CCCCCCCC(=O)CC[C@@H]1[C@@H](C/C=C\CCCC(=O)OC(C)C)[C@@H](O)C[C@H]1O` [isopropyl unoprostone, 13,14-dihydro-15-keto-20-ethyl-PGF2α isopropylester], for which the “Iris colour change in patients” value in data set [5] (human, in vivo) is “darkening of the iris”.
As for `CCCCC[C@H](O)/C=C/[C@H]1[C@H](O)CC(=O)[C@@H]1C/C=C\CCCC(=O)O` [PGE2], the “Pigmentation of the monkey iris” value in data set [3] (chronic treatment) is recorded as “increased pigmentation”.
`CC(N)(Cc1ccc(O)cc1)C(=O)O` (stereo not drawn) [α-methyl-p-tyrosine, α-methyl-para-tyrosine]: the Tyrosinase activity in data set [1] (setting [16]) was found to be 32.4 units; in data set [1] (setting [17]), 39.5 units; in data set [1] (setting [18]), 34.6 units; in data set [1] (setting [19]) it was 31.7 units; in data set [1] (setting [20]) it was 34.6 units; in data set [1] (setting [21]), 33.6 units. Moreover, the Tyrosinase activity in data set [1] (setting [22]) came out at 31.5 units; in data set [1] (setting [23]) it was 34.6 units; in data set [1] (setting [24]), 38.7 units; in data set [1] (setting [25]), 35.5 units. The “Tyrosinase activity (in words)” value in data set [1] (setting [26]) is given as “significant decrease”. The Melanin content in data set [2] (setting [16]) is given as 0.0122 ng/cell; in data set [2] (setting [17]), 0.0128 ng/cell; in data set [2] (setting [18]), 0.0125 ng/cell; in data set [2] (setting [19]), 0.0123 ng/cell; in data set [2] (setting [20]), 0.0119 ng/cell; in data set [2] (setting [21]), 0.0133 ng/cell. In addition, the Melanin content in data set [2] (setting [22]) amounted to 0.0131 ng/cell; in data set [2] (setting [23]), 0.0137 ng/cell; in data set [2] (setting [24]), 0.0136 ng/cell; in data set [2] (setting [25]) it was 0.0135 ng/cell. The “Melanin content (in words)” value in data set [2] (setting [26]) is “significant decrease”. Further, the “Catecholamine concentration in the body” value in data set [6] is “markedly reduced”. Besides, the Melanin production in data set [4] (setting [16]) is given as 0.0023 ng/cell/day; in data set [4] (setting [17]), 0.0031 ng/cell/day; in data set [4] (setting [18]), 0.0029 ng/cell/day; in data set [4] (setting [19]), 0.0029 ng/cell/day; in data set [4] (setting [20]), 0.0025 ng/cell/day; in data set [4] (setting [21]), 0.0033 ng/cell/day. For the same compound, the Melanin production amounted to 0.0031 ng/cell/day in data set [4] (setting [22]), 0.0029 ng/cell/day in data set [4] (setting [23]), 0.0039 ng/cell/day in data set [4] (setting [24]) and 0.0035 ng/cell/day in data set [4] (setting [25]). Further, the “Melanin production by iris melanocytes (summary in words)” value in data set [4] is listed as “inhibited”; in data set [4] (listed as α-methyl-para-tyrosine), “significantly reduced”. In addition, the “Melanin production (in words)” value in data set [4] (setting [26]) is “significant decrease”.
